Data from patent publication US11028061B2, “Modulators of myocyte lipid accumulation and insulin resistance and methods of use thereof” (Sanford Burnham Prebys Medical Discovery Institute, priority 2015, dated 2021).

Tests used:
H9c2 myotubes = assay: Glycogen synthesis in H9c2 myotubes; assay type: cell-based, Rat
[1] = system: primary human skeletal myotubes; assay: Fatty acid oxidation (FAO) assay, 3H-palmitate; assay type: cell-based; details: 24 hours
Procedure: FAO rates were determined for primary human skeletal myotubes with or without SBI-477 using 125 μM [3H]-palmitic acid (Djouadi, et al., Mol Genet Metab. 2003; 78(2):112-118). Primary human skeletal myotubes were grown and differentiated in 24-well plates. Cells were treated with the indicated concentration of SBI-477 for 24 hours. Following compound treatment, cells were rinsed three times with PBS and then incubated in 125 μM [3H]-palmitic acid (60 Ci/mmol) bound to fatty acid free albumin containing 1 mM carnitine for 2 hours at 37° C. The cell medium was transferred to a tube containing cold 10% trichloroacetic acid (TCA). The tubes were centrifuged at 8,500×g for 10 minutes at 4° C. The supernatant was immediately removed, mixed with 6N NaOH, and applied to ion-exchange resin (DOWEX 1; Sigma-Aldrich). The eluate was collected, measured by liquid scintillation analyzer (PerkinElmer) and normalized to total protein amount. The amount of cell protein was measured by Micro BCA protein assay kit (Thermo Scientific).

[2] = system: insulin receptor substrate 1 (IRS-1); assay: Western blot of IRS-1 phosphorylation; assay type: cell-based, human; details: 24 hours
Procedure: FIGS. 3A, B, C, E and F show SBI-477 stimulation of glucose uptake and activates insulin signaling in the absence of insulin. Human skeletal myotubes were incubated with SBI-477 at the indicated concentration for 24 hours and then treated with or without insulin (100 nM) for 30 minutes. Glucose ([3H]-2-deoxyglucose, 2-DG) uptake (FIG. 3A) and glycogen synthesis rates (FIGS. 3B and 3C) were measured (n=5) as described in Methods. *p<0.05 vs. Vehicle, no insulin, †p<0.05 vs. Vehicle/insulin by two-way ANOVA with Tukey's post hoc test. (FIG. 3E) Western blot analysis of human myotubes treated with SBI-477 for 24 hours was performed to determine the effect on steps of the insulin signaling pathway using specific Akt and IRS-1 phosphorylation sites as endpoints. Insulin treatment (100 nM) for 30 minutes was used as positive control. (FIG. 3F) Quantitation of the western blot data in […] is shown (n=5). *p<0.05 or **p<0.01 vs. Vehicle by one-way ANOVA with Bonferroni post hoc test. The data represent mean±SD.
Cells were lysed in the RIPA buffer containing 1% NP-40, 5 mM Na4P2O7, 1 mM EDTA, 20 mM NaF, 2 mM Na3VO4, 1× cOmplete™ protease inhibitor (Roche) and 1 mM phenylmethylsulfonyl fluoride. […] Protein quantification was performed using FluorChemQ (Alpha Innotech) and normalized to […]-actin or total protein where indicated.

human skeletal myotubes [3] = assay: Glycogen synthesis assay in human skeletal myotubes; assay type: cell-based; details: 24 hours
Procedure: Human skeletal myotubes were incubated with or without SBI-477 and then treated with or without insulin (100 nM) for 30 minutes. Glycogen synthesis rates were then measured as described (Halse, et al., J Biol Chem. 1999; 274(2):776-780). Briefly, differentiated primary human skeletal myotubes were treated with SBI-477 as described in the glucose uptake assay. Following incubation with SBI-477, cells were serum starved in α-MEM for 1 hour. The medium was replaced with α-MEM supplemented with [14C]-D-glucose (1 μCi/mL) for three hours and then treated in the absence or presence of insulin (100 nM) for 30 minutes. After incubation, the cells were washed three times with ice-cold PBS and then lysed in 30% potassium hydroxide (KOH) containing 6 mg/mL glycogen. For glycogen precipitation, the samples were added to ice-cold 100% ethanol for 18 hours at 4° C. The samples were centrifuged at 8,500×g for 10 minutes at 4° C. and the supernatant was discarded. After one wash with 75% ethanol, the glycogen precipitate was dissolved in distilled water. [14C]-D-glucose incorporated to glycogen was counted by liquid scintillation analyzer (PerkinElmer) and normalized to total protein.

[4] = system: primary murine skeletal myocytes; assay: TAG accumulation in primary murine skeletal myocytes; assay type: cell-based; details: Mus musculus; primary murine skeletal myocytes; read-out: Activity Score (IC50), triacylglyceride (TAG) accumulation
human skeletal myotubes [5] = assay: Cellular glucose uptake assay ([3H]-2-deoxyglucose); assay type: cell-based; details: 10 μM SBI-477, 24 hours
Procedure: After differentiation, primary human skeletal myotubes were incubated with the indicated concentration of SBI-477 for 24 hours and then treated with insulin (100 nM) for 30 minutes. Cells were washed in phosphate-buffered saline (PBS) three times at room temperature and then incubated with Krebs-Ringer HEPES buffer (140 mM NaCl, 5 mM KCl, 1 mM CaCl2, 2.5 mM MgSO4, 2.5 mM, NaH2PO4, 20 mM HEPES and 0.1% bovine serum albumin) containing [3H]-2-deoxyglucose (1.0 μCi/mL) for 15 min. Glucose uptake was terminated by washing five times with ice-cold PBS. The cells were then solubilized with 0.5N sodium hydroxide (NaOH). The amount of [3H]-2-deoxyglucose taken up was measured by liquid scintillation analyzer (PerkinElmer) and normalized to total protein.

## COc1ccc(-c2csc(NC(=O)c3ccc(OCC(=O)N4CCOCC4)c(OC)c3)n2)cc1 [Cpd. 7, 3-methoxy-N-(4-(4-methoxyphenyl)thiazol-2-yl)-4-(2-morpholino-2-oxoethoxy)benzamide]
H9c2 myotubes
  Insulin-stimulated glycogen synthesis compared to vehicle: increased insulin-stimulated glycogen synthesis
[1]
  FAO rates: increased by SBI-477 in a dose-dependent manner
[2]
  IRS-1 phosphorylation at serine sites 636/639: decreased
[2]; absence of insulin
  Tyrosine phosphorylation of IRS-1: increased
Human skeletal myotubes [3]
  Glycogen synthesis rates: enhanced by SBI-477 treatment in a dose dependent manner
[4]
  IC50: < 1000 nM
Human skeletal myotubes [5]
  Increase of basal and insulin stimulated glucose uptake: approximately 84%
